The subject of experiment [1] is A549. The experiment can be described thus: Growth inhibition of human A549 cells at 10 uM after 48 hrs by SRB assay. It is filed as functional. To be noted: A549, 48 h, read-out: GI. Background: Sulforhodamine B stains cellular protein and so reports cell mass.
The test system of experiment [2] is A549. Briefly: Growth inhibition of human A549 cells at 50 uM after 48 hrs by SRB assay. It is filed as functional. To be noted: A549, 48 h, read-out: GI.
The subject of experiment [3] is A549. Briefly: Growth inhibition of human A549 cells at 100 uM after 48 hrs by SRB assay. The format is functional. To be noted: A549, 48 h, read-out: GI.
The test system of experiment [4] is PC-3. The experiment can be described thus: Growth inhibition of human PC3 cells at 10 uM after 48 hrs by SRB assay. It is filed as functional. Particulars: PC-3, 48 h, read-out: GI.
The test system of experiment [5] is PC-3. Briefly: Growth inhibition of human PC3 cells at 50 uM after 48 hrs by SRB assay. The format is functional. Particulars: PC-3, 48 h, read-out: GI.
The subject of experiment [6] is PC-3. Briefly: Growth inhibition of human PC3 cells at 100 uM after 48 hrs by SRB assay. The format is functional. To be noted: PC-3, 48 h, read-out: GI.
In experiment [7] the test system is THP-1. The experiment can be described thus: Growth inhibition of human THP1 cells at 10 uM after 48 hrs by SRB assay. The format is functional. To be noted: THP-1, 48 h, read-out: GI.
Experiment [8] concerns THP-1. Briefly: Growth inhibition of human THP1 cells at 50 uM after 48 hrs by SRB assay. It is filed as functional. Particulars: THP-1, 48 h, read-out: GI.
Experiment [9] concerns THP-1. Briefly: Growth inhibition of human THP1 cells at 100 uM after 48 hrs by SRB assay. It is filed as functional. Particulars: THP-1, 48 h, read-out: GI.
In experiment [10] the test system is Caco-2. Briefly: Growth inhibition of human Caco2 cells at 10 uM after 48 hrs by SRB assay. The format is functional. Particulars: Caco-2, 48 h, read-out: GI.
Experiment [11] relates to Caco-2. Briefly: Growth inhibition of human Caco2 cells at 50 uM after 48 hrs by SRB assay. The format is functional. To be noted: Caco-2, 48 h, read-out: GI.
Experiment [12] relates to Caco-2. The experiment can be described thus: Growth inhibition of human Caco2 cells at 100 uM after 48 hrs by SRB assay. The format is functional. To be noted: Caco-2, 48 h, read-out: GI.
The test system of experiment [13] is A549. Briefly: Growth inhibition of human A549 cells after 48 hrs by SRB assay. It is filed as functional, cell-based. Particulars: for IC50: A549, 48 h.
The subject of experiment [14] is PC-3. The experiment can be described thus: Growth inhibition of human PC3 cells after 48 hrs by SRB assay. The format is functional, cell-based. Particulars: for IC50: PC-3, 48 h.
In experiment [15] the test system is THP-1. Briefly: Growth inhibition of human THP1 cells after 48 hrs by SRB assay. To be noted: for IC50: THP-1, 48 h. The format is functional, cell-based.
For experiment [16], the system named is Caco-2. Briefly: Growth inhibition of human Caco2 cells after 48 hrs by SRB assay. The format is functional, cell-based. Particulars: for IC50: Caco-2, 48 h.
The test system of experiment [17] is THP-1. The experiment can be described thus: Ratio of 5-fluorouracil IC50 to compound IC50 for human THP1 cells. It is filed as functional.

In general, IC50 refers to the concentration at which inhibition is half-maximal. Lower therefore signals inhibition by little substance.

Consider `O=C1C(=O)N(CCn2cc(CN3C(=O)C(=O)c4cc(Cl)ccc43)nn2)c2ccccc21`, for which the inhibition of growth at 10 µM in the experiment on A549 [1] was 94%; with PC-3 [4] it was 99%; with THP-1 [7] it was 80%; in the experiment on Caco-2 [10], 6%. For the same compound, the inhibition of growth at 50 µM with A549 [2] came to 98%; in the experiment on PC-3 [5] it was 100%; in the experiment with THP-1 [8], 90%; with Caco-2 [11], 24%. Moreover, the inhibition of growth at 100 µM with A549 [3] amounted to 100%; in the experiment with PC-3 [6] it was 100%; with THP-1 [9], 100%; with Caco-2 [12], 38%. Besides, the “growth inhibition (GI)” value in the experiment with A549 [13], in the experiment with PC-3 [14], in the experiment on THP-1 [15] and in the experiment on Caco-2 [16] was “Dose-dependent effect” in each case. Besides, the IC50 in the experiment on A549 [13] was less than 1 µM; in the experiment with PC-3 [14] it was less than 1 µM; in the experiment with THP-1 [15], less than 1 µM; in the experiment with Caco-2 [16] it was greater than 100 µM. The “Ratio IC50” value in the experiment with THP-1 [17] is on record as 2.

`O=C1C(=O)N(CCn2cc(CN3C(=O)C(=O)c4cc(Br)ccc43)nn2)c2ccccc21`: the inhibition of growth at 10 µM in the experiment with A549 [1] turned out to be 41%; in the experiment with PC-3 [4] it was 94%; with THP-1 [7], 10%; with Caco-2 [10], 1%. Besides, the inhibition of growth at 50 µM in the experiment with A549 [2] stood at 96%; with PC-3 [5] it was 99%; with THP-1 [8], 53%; in the experiment with Caco-2 [11], 10%. Moreover, the inhibition of growth at 100 µM in the experiment with A549 [3] was found to be 97%; in the experiment with PC-3 [6], 100%; with THP-1 [9] it was 88%; with Caco-2 [12] it was 25%. For the same compound, the “growth inhibition (GI)” value with A549 [13], with PC-3 [14], in the experiment with THP-1 [15] and with Caco-2 [16] was “Dose-dependent effect” each time. In addition, the IC50 is 14.6 µM with A549 [13], less than 1 µM in the experiment on PC-3 [14], 51.9 µM in the experiment on THP-1 [15] and greater than 100 µM in the experiment on Caco-2 [16].

As for `O=C1C(=O)N(CCn2cc(CN3C(=O)C(=O)c4cc(Br)ccc43)nn2)c2ccc(Cl)cc21`, the inhibition of growth at 10 µM in the experiment with A549 [1] was found to be 10%; with PC-3 [4], 29%; in the experiment on THP-1 [7], 28%; in the experiment on Caco-2 [10] it was 36%. Moreover, the inhibition of growth at 50 µM with A549 [2] stood at 83%; in the experiment on PC-3 [5], 43%; with THP-1 [8], 82%; in the experiment on Caco-2 [11], 57%. The inhibition of growth at 100 µM stood at 98% in the experiment with A549 [3], 70% in the experiment with PC-3 [6], 90% in the experiment on THP-1 [9] and 68% with Caco-2 [12]. Further, the “growth inhibition (GI)” value in the experiment on A549 [13], in the experiment with PC-3 [14], in the experiment on THP-1 [15] and in the experiment with Caco-2 [16] was “Dose-dependent effect” throughout. Moreover, the IC50 with A549 [13] came to 42.2 µM; in the experiment with PC-3 [14] it was 51.4 µM; in the experiment on THP-1 [15] it was 26.9 µM; with Caco-2 [16], 32.2 µM.

As to `O=C1C(=O)N(CCn2cc(CN3C(=O)C(=O)c4cc(Br)ccc43)nn2)c2ccc(F)cc21`, the inhibition of growth at 10 µM with A549 [1] is 41%; in the experiment with PC-3 [4] it was 0%; with THP-1 [7], 26%; in the experiment on Caco-2 [10], 0%. For the same compound, the inhibition of growth at 50 µM was 79% in the experiment on A549 [2], 2% in the experiment on PC-3 [5], 85% in the experiment on THP-1 [8] and 7% in the experiment on Caco-2 [11]. The inhibition of growth at 100 µM with A549 [3] was found to be 98%; with PC-3 [6], 51%; in the experiment on THP-1 [9], 94%; in the experiment with Caco-2 [12] it was 13%. Further, the “growth inhibition (GI)” value in the experiment on A549 [13], in the experiment on PC-3 [14], in the experiment with THP-1 [15] and with Caco-2 [16] was “Dose-dependent effect” in each case. The IC50 with A549 [13] was 16.4 µM; in the experiment with PC-3 [14], greater than 100 µM; with THP-1 [15] it was 27.6 µM; with Caco-2 [16] it was greater than 100 µM.

Consider `O=C1C(=O)N(CCn2cc(CN3C(=O)C(=O)c4cc(F)ccc43)nn2)c2ccc(F)cc21`, for which the inhibition of growth at 10 µM in the experiment with A549 [1] is 5%; with PC-3 [4], 0%; in the experiment with THP-1 [7], 1%; in the experiment on Caco-2 [10], 0%. The inhibition of growth at 50 µM in the experiment with A549 [2] worked out at 23%; with PC-3 [5] it was 10%; with THP-1 [8], 13%; in the experiment on Caco-2 [11] it was 0%. In addition, the inhibition of growth at 100 µM was determined as 62% in the experiment with A549 [3], 30% with PC-3 [6], 92% in the experiment with THP-1 [9] and 10% in the experiment with Caco-2 [12]. The “growth inhibition (GI)” value in the experiment with A549 [13], in the experiment with PC-3 [14], in the experiment on THP-1 [15] and with Caco-2 [16] was “Dose-dependent effect” each time. Also, the IC50 in the experiment on A549 [13] was 90.7 µM; in the experiment with PC-3 [14] it was greater than 100 µM; with THP-1 [15], 83.3 µM; in the experiment with Caco-2 [16], greater than 100 µM.

For `O=C1C(=O)N(CCn2cc(CN3C(=O)C(=O)c4cc(F)ccc43)nn2)c2ccccc21`, the inhibition of growth at 10 µM in the experiment on A549 [1] was 11%; in the experiment with PC-3 [4], 20%; with THP-1 [7], 10%; with Caco-2 [10], 0%. For the same compound, the inhibition of growth at 50 µM in the experiment on A549 [2] worked out at 97%; in the experiment on PC-3 [5], 98%; in the experiment with THP-1 [8], 96%; in the experiment with Caco-2 [11] it was 1%. Also, the inhibition of growth at 100 µM with A549 [3] was found to be 99%; with PC-3 [6] it was 100%; with THP-1 [9] it was 100%; in the experiment with Caco-2 [12], 22%. Also, the “growth inhibition (GI)” value in the experiment on A549 [13], in the experiment with PC-3 [14], in the experiment on THP-1 [15] and in the experiment on Caco-2 [16] was “Dose-dependent effect” each time. Also, the IC50 in the experiment with A549 [13] is 38.9 µM; in the experiment on PC-3 [14] it was 30.1 µM; in the experiment on THP-1 [15], 39.9 µM; in the experiment with Caco-2 [16] it was greater than 100 µM.

(Values after ChEMBL document CHEMBL2062394, “Azide-alkyne cycloaddition en route to novel 1H-1,2,3-triazole tethered isatin conjugates with in vitro cytotoxic evaluation” (Eur J Med Chem, 2012).)
